From ChEMBL document CHEMBL3885861, “Open TG-GATES”

Species: Rattus norvegicus
Test: Open TG-GATES - Regimen: Single
Assay type: toxicity, organism-based, Sprague-Dawley
Set-up: regimen Single, gender Male, age 6 weeks
Settings: in vivo, po, 100 mg/kg, route gavage, dose level Low; for APTT / Bas / Eos / Fbg / Hb / Ht / Lym / MCH / MCHC / MCV / Mono / Neu / PT / Plat / RBC / Ret / WBC: tissue Blood; for KIDNEY_L / KIDNEY_R / KIDNEY_TOTAL: tissue Kidney; for LIVER: tissue Liver; for ALP / ALT / AST / CRE / DBIL / GLC / IP / K / LDH / Na / PL / RALB / TBIL / TC / TP / gamma-GTP: tissue Plasma

Clc1ccccc1CN1CCc2sccc2C1 [TICLOPIDINE]
TERMINAL_BW (3 h): 210.7 g | APTT (3 h): 19.6 s | Bas (3 h): 0.2% | Eos (3 h): 0.8% | Fbg (3 h): 226.4 mg/dL | Hb (3 h): 13.4 g/dL | Ht (3 h): 38.3% | Lym (3 h): 78.6% | MCH (3 h): 21.4 pg | MCHC (3 h): 35% | MCV (3 h): 61.1 fL | Mono (3 h): 2.8% | Neu (3 h): 16.6% | PT (3 h): 12.2 s | Plat (3 h): 117.9 x10_4/uL | RBC (3 h): 628 x10_4/ul | Ret (3 h): 8.1% | WBC (3 h): 70.6 x10_2/uL | KIDNEY_L (3 h): 1 g | KIDNEY_R (3 h): 1 g | KIDNEY_TOTAL (3 h): 2 g | LIVER (3 h): 9 g | ALP (3 h): 1125 IU/L | ALT (3 h): 35 IU/L | AST (3 h): 71 IU/L | CRE (3 h): 0.4 mg/dL | DBIL (3 h): 0.076 mg/dL | GLC (3 h): 200.6 mg/dL | IP (3 h): 10.6 mg/dL | K (3 h): 3.9 meq/L | LDH (3 h): 155.4 IU/L | Na (3 h): 141.4 meq/L | PL (3 h): 132.2 mg/dL | RALB (3 h): 3.3 g/dL | TBIL (3 h): 0.1 mg/dL | TC (3 h): 70.2 mg/dL | TP (3 h): 5.5 g/dL | gamma-GTP (3 h): 0.8 IU/L | TERMINAL_BW (6 h): 209.6 g | APTT (6 h): 18.1 s | Bas (6 h): 0.4% | Eos (6 h): 1% | Fbg (6 h): 231.6 mg/dL | Hb (6 h): 13.4 g/dL | Ht (6 h): 37.9% | Lym (6 h): 76% | MCH (6 h): 20.8 pg | MCHC (6 h): 35.3% | MCV (6 h): 58.9 fL | Mono (6 h): 2.8% | Neu (6 h): 19.2% | PT (6 h): 12.3 s | Plat (6 h): 130.4 x10_4/uL | RBC (6 h): 643.6 x10_4/ul | Ret (6 h): 7.9% | WBC (6 h): 75.4 x10_2/uL | KIDNEY_L (6 h): 0.9 g | KIDNEY_R (6 h): 0.9 g | KIDNEY_TOTAL (6 h): 1.8 g | LIVER (6 h): 8.7 g | ALP (6 h): 940.2 IU/L | ALT (6 h): 31.6 IU/L | AST (6 h): 68.4 IU/L | CRE (6 h): 0.4 mg/dL | DBIL (6 h): 0.08 mg/dL | GLC (6 h): 189 mg/dL | IP (6 h): 10.1 mg/dL | K (6 h): 3.9 meq/L | LDH (6 h): 212 IU/L | Na (6 h): 141.4 meq/L | PL (6 h): 137.2 mg/dL | RALB (6 h): 3.4 g/dL | TBIL (6 h): 0.1 mg/dL | TC (6 h): 77.8 mg/dL | TP (6 h): 5.5 g/dL | gamma-GTP (6 h): 0.8 IU/L | TERMINAL_BW (9 h): 208 g | APTT (9 h): 17.3 s | Bas (9 h): 0.2% | Eos (9 h): 0.6% | Fbg (9 h): 226.6 mg/dL | Hb (9 h): 13.3 g/dL | Ht (9 h): 37.5% | Lym (9 h): 74.6% | MCH (9 h): 21.4 pg | MCHC (9 h): 35.4% | MCV (9 h): 60.5 fL | Mono (9 h): 2.8% | Neu (9 h): 20.6% | PT (9 h): 12.7 s | Plat (9 h): 123.9 x10_4/uL | RBC (9 h): 621.6 x10_4/ul | Ret (9 h): 7.5% | WBC (9 h): 81 x10_2/uL | KIDNEY_L (9 h): 0.9 g | KIDNEY_R (9 h): 0.9 g | KIDNEY_TOTAL (9 h): 1.9 g | LIVER (9 h): 8.3 g | ALP (9 h): 955 IU/L | ALT (9 h): 29.6 IU/L | AST (9 h): 69.8 IU/L | CRE (9 h): 0.4 mg/dL | DBIL (9 h): 0.082 mg/dL | GLC (9 h): 199.8 mg/dL | IP (9 h): 10 mg/dL | K (9 h): 3.8 meq/L | LDH (9 h): 151.2 IU/L | Na (9 h): 142.6 meq/L | PL (9 h): 141.6 mg/dL | RALB (9 h): 3.4 g/dL | TBIL (9 h): 0.1 mg/dL | TC (9 h): 77.6 mg/dL | TP (9 h): 5.4 g/dL | gamma-GTP (9 h): 1.4 IU/L | TERMINAL_BW (24 h): 219.8 g | APTT (24 h): 21.2 s | Bas (24 h): 1% | Eos (24 h): 1% | Fbg (24 h): 222 mg/dL | Hb (24 h): 13.6 g/dL | Ht (24 h): 38.3% | Lym (24 h): 77.8% | MCH (24 h): 21.7 pg | MCHC (24 h): 35.5% | MCV (24 h): 61.3 fL | Mono (24 h): 2.8% | Neu (24 h): 16.8% | PT (24 h): 12 s | Plat (24 h): 124.9 x10_4/uL | RBC (24 h): 624.4 x10_4/ul | Ret (24 h): 6.3% | WBC (24 h): 116 x10_2/uL | KIDNEY_L (24 h): 1 g | KIDNEY_R (24 h): 1 g | KIDNEY_TOTAL (24 h): 2 g | LIVER (24 h): 10.1 g | ALP (24 h): 1052.4 IU/L | ALT (24 h): 37.8 IU/L | AST (24 h): 70.2 IU/L | CRE (24 h): 0.4 mg/dL | DBIL (24 h): 0.072 mg/dL | GLC (24 h): 188.6 mg/dL | IP (24 h): 8.1 mg/dL | K (24 h): 4.1 meq/L | LDH (24 h): 141.4 IU/L | Na (24 h): 141.6 meq/L | PL (24 h): 136.4 mg/dL | RALB (24 h): 3.4 g/dL | TBIL (24 h): 0.1 mg/dL | TC (24 h): 72.2 mg/dL | TP (24 h): 5.5 g/dL | gamma-GTP (24 h): 1 IU/L
